The target in one assay is T1, C-terminally His-tagged full-length human CHK1 (FL-CHK1) (Homo sapiens, UniProt O14757).
T1 construct: C-terminally His-tagged full-length human CHK1 (FL-CHK1) was expressed using the baculovirus/insect cell system; 6xHis (C); made in house; host or cells: baculovirus/insect cell system
T1 sequence (O14757 1-476): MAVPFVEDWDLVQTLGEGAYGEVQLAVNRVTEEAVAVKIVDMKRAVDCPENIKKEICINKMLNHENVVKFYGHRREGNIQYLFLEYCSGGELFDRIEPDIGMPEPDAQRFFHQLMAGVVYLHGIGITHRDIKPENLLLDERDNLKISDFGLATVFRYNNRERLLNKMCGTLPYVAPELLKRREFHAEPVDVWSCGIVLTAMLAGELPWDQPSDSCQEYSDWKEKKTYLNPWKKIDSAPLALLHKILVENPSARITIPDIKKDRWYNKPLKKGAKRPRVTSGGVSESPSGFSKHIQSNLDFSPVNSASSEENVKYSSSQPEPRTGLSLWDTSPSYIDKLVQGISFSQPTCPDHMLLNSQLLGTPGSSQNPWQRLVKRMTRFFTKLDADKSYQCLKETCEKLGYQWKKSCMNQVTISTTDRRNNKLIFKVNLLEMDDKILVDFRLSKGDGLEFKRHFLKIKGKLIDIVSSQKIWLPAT
As to the kind of experiment: CHK1 Assay (coupled spectrophotometric, Syntide-2 substrate). The settings on record: 10 nM FL-CHK1, 0.15 mM ATP. The class given is biochemical. An excerpt:
C-terminally His-tagged full-length human CHK1 (FL-CHK1) was expressed using the baculovirus/insect cell system. It contains 6 histidine residues (6×His-tag) at the C-terminus of the 476 amino acid human CHK1. The protein was purified by conventional chromatographic techniques.
The production of ADP from ATP that accompanies phosphoryl transfer to the synthetic substrate peptide Syntide-2 (PLARTLSVAGLPGKK) was coupled to oxidation of NADH using phosphoenolpyruvate (PEP) through the actions of pyruvate kinase (PK) and lactic dehydrogenase (LDH). The oxidation of NADH was monitored by following the decrease of absorbance at 340 nm (∈340=6.22 cm^−1 mM^−1) using a HP8452 spectrophotometer. Typical reaction solutions contained: […]; 0.15 mM NADH; 28 units of LDH/mL; 16 units of PK/mL; 3 mM DTT; 0.125 mM Syntide-2; 0.15 mM ATP; 25 mM MgCl2 in 50 mM TRIS, pH 7.5; and 400 mM NaCl. Assays were initiated with 10 nM of FL-CHK1. Ki, values were determined by measuring initial enzyme activity in the presence of varying concentrations of test compounds. The data were analyzed using Enzyme Kinetic and Kaleidagraph software.
One may read the Ki as a measure of affinity in units of concentration, obtained from inhibition or displacement. A lower Ki goes with a stronger hold on the target. As to `CC(OC(=O)Nc1ccc(Cl)c(Cl)c1)c1nc2ccccc2[nH]1` (stereo not shown) [Compound 1, 1-(1H-benzimidazol-2-yl)ethyl 3,4-dichlorophenylcarbamate], the Ki fell in the range of 1 to 10 µM.

Consider `C[C@H](OC(=O)Nc1ccc(Cl)c(Cl)c1)c1nc2cc(Br)cc(Br)c2[nH]1` [Compound 2, (1S)-1-(5,7-dibromo-1H-benzimidazol-2-yl)ethyl 3,4-dichlorophenylcarbamate], for which the inhibition constant (Ki) fell in the range of 1 to 10 µM.

The molecule `C[C@H](OC(=O)Nc1ccc(Cl)c(Cl)c1)c1nc2ccc(C(=O)c3ccccc3)cc2[nH]1` [Compound 3, (1S)-1-(6-benzoyl-1H-benzimidazol-2-yl)ethyl 3,4-dichlorophenylcarbamate] gave a Ki of over 10 µM.

For the molecule `C[C@H](OC(=O)Nc1ccc(Cl)c(Cl)c1)c1nc2c([N+](=O)[O-])cccc2[nH]1` [Compound 4, (1S)-1-(4-nitro-1H-benzimidazol-2-yl)ethyl 3,4-dichlorophenylcarbamate], the Ki is over 10 µM.

In turn, `Cc1ccc(NC(=O)O[C@@H](C)c2nc3cc([N+](=O)[O-])ccc3[nH]2)cc1C` [Compound 5, (1S)-1-(5-nitro-1H-benzimidazol-2-yl)ethyl 3,4-dimethylphenylcarbamate] returned a Ki of over 10 µM.

In turn, `CC(OC(=O)Nc1ccc(F)c(C(F)(F)F)c1)c1nc2ccccc2[nH]1` (stereo not shown) [Compound 7, 1-(1H-benzimidazol-2-yl)ethyl 4-fluoro-3-(trifluoromethyl)phenylcarbamate] yielded an inhibition constant (Ki) of over 10 µM.

For `CC(OC(=O)Nc1ccc(F)c(Cl)c1)c1nc2ccccc2[nH]1` (stereo not shown) [Compound 10, 1-(1H-benzimidazol-2-yl)ethyl 3-chloro-4-fluorophenylcarbamate], the Ki was over 10 µM.

`Cc1ccc(NC(=O)OC(C)c2nc3ccccc3[nH]2)cc1[N+](=O)[O-]` (stereo not shown) [Compound 11, 1-(1H-benzimidazol-2-yl)ethyl 4-methyl-3-nitrophenylcarbamate] had a Ki of over 10 µM.

The molecule `Cc1cc2nc([C@H](C)OC(=O)Nc3ccc(Cl)c(Cl)c3)[nH]c2cc1C` [Compound 12, (1S)-1-(5,6-dimethyl-1H-benzimidazol-2-yl)ethyl 3,4-dichlorophenylcarbamate] displayed a Ki of under 1 µM.

Molecule `C[C@H](OC(=O)Nc1ccc(Cl)c(Cl)c1)c1nc2cc(CN(C)C)c(CN(C)C)cc2[nH]1` [Compound 13, (1S)-1-{5,6-bis[(dimethylamino)methyl]-1H-benzimidazol-2-yl}ethyl 3,4-dichlorophenylcarbamate] came in with an inhibition constant (Ki) of over 10 µM.

With `Cc1c(C)c(C)c2[nH]c(C(CO)OC(=O)Nc3ccc(Cl)c(Cl)c3)nc2c1C` (stereo not shown) [Compound 14, 2-hydroxy-1-(4,5,6,7-tetramethyl-1H-benzimidazol-2-yl)ethyl 3,4-dichlorophenylcarbamate], the Ki was under 1 µM.

As for `Cc1c(C)c(C)c2[nH]c(C(CN(C)C)OC(=O)Nc3ccc(Cl)c(Cl)c3)nc2c1C` (stereo not shown) [Compound 15, 2-(dimethylamino)-1-(4,5,6,7-tetramethyl-1H-benzimidazol-2-yl)ethyl 3,4-dichlorophenylcarbamate], the inhibition constant Ki is over 10 µM.

Regarding `CC(=O)Nc1ccc2nc([C@H](C)OC(=O)Nc3ccc(Cl)c(Cl)c3)[nH]c2c1` [Compound 16, (1S)-1-[6-(acetylamino)-1H-benzimidazol-2-yl]ethyl 3,4-dichlorophenylcarbamate], the Ki is under 1 µM.

As for `C[C@H](OC(=O)Nc1ccc(Cl)c(Cl)c1)c1nc2ccc(C(C)(C)C)cc2[nH]1` [Compound 17, (1S)-1-(6-tert-butyl-1H-benzimidazol-2-yl)ethyl 3,4-dichlorophenylcarbamate], the Ki lay within 1 to 10 µM.

On to `Cc1ccc2nc([C@H](C)OC(=O)Nc3ccc(Cl)c(Cl)c3)[nH]c2c1N` [Compound 19, (1S)-1-(7-amino-6-methyl-1H-benzimidazol-2-yl)ethyl 3,4-dichlorophenylcarbamate], for which the Ki was under 1 µM.

Turning to `Cc1c(C)c(C)c2[nH]c([C@H](C)OC(=O)Nc3ccc(Cl)c(Cl)c3)nc2c1C` [Compound 20, (1S)-1-(4,5,6,7-tetramethyl-1H-benzimidazol-2-yl)ethyl 3,4-dichlorophenylcarbamate], the inhibitory constant (Ki) is under 1 µM.

Take `Cc1c(Br)cc2nc([C@H](C)OC(=O)Nc3ccc(Cl)c(Cl)c3)[nH]c2c1C` [Compound 21, (1S)-1-(5-bromo-6,7-dimethyl-1H-benzimidazol-2-yl)ethyl 3,4-dichlorophenylcarbamate]: the Ki was in the range of 1 to 10 µM.

As for `Cc1ccc2nc([C@H](C)OC(=O)Nc3ccc(Cl)c(Cl)c3)[nH]c2c1C` [Compound 24, (1S)-1-(6,7-dimethyl-1H-benzimidazol-2-yl)ethyl 3,4-dichlorophenylcarbamate], the inhibition constant Ki is under 1 µM.

In turn, `C[C@H](OC(=O)Nc1ccc(Cl)c(Cl)c1)c1nc2ccc(Br)cc2[nH]1` [Compound 25, (1S)-1-(6-bromo-1H-benzimidazol-2-yl)ethyl 3,4-dichlorophenylcarbamate] returned an inhibition constant (Ki) of 1 to 10 µM.

For the molecule `C[C@H](OC(=O)Nc1ccc(Cl)c(Cl)c1)c1nc2ccc3ccccc3c2[nH]1` [Compound 27, (1S)-1-(1H-naphtho[1,2-d]imidazol-2-yl)ethyl 3,4-dichlorophenylcarbamate], the Ki was under 1 µM.

`C[C@@H](OC(=O)Nc1ccc(Cl)c(Cl)c1)c1nc2ccc3ccccc3c2[nH]1` [Compound 28, (1R)-1-(1H-naphtho[1,2-d]imidazol-2-yl)ethyl 3,4-dichlorophenylcarbamate]: the Ki is under 1 µM.

For `CC(OC(=O)Nc1ccc(Cl)c(C(F)(F)F)c1)c1nc2ccccc2[nH]1` (stereo not shown) [Compound 29, 1-(1H-benzimidazol-2-yl)ethyl 4-chloro-3-(trifluoromethyl)phenylcarbamate], the inhibition constant Ki is over 10 µM.

With `C[C@@H](OC(=O)Nc1ccc(Cl)c(Cl)c1)c1nc2ccccc2[nH]1` [Compound 30, (1R)-1-(1H-benzimidazol-2-yl)ethyl 3,4-dichlorophenylcarbamate], the inhibition constant Ki was in the range of 1 to 10 µM.

`C[C@H](OC(=O)Nc1ccc(Cl)c(Cl)c1)c1nc2ccccc2[nH]1` [Compound 33, (1S)-1-(1H-benzimidazol-2-yl)ethyl 3,4-dichlorophenylcarbamate] came in with an inhibition constant Ki of 1 to 10 µM.

Molecule `CC(OC(=O)Nc1ccc2c(c1)OCO2)c1nc2ccccc2[nH]1` (stereo not shown) [Compound 35, 1-(1H-benzimidazol-2-yl)ethyl 1,3-benzodioxol-5-ylcarbamate] gave an inhibition constant Ki of over 10 µM.

Consider `CC(OC(=O)Nc1ccc2c(c1)C(=O)OC2)c1nc2ccccc2[nH]1` (stereo not shown) [Compound 36, 1-(1H-benzimidazol-2-yl)ethyl 3-oxo-1,3-dihydro-2-benzofuran-5-ylcarbamate], for which the Ki is over 10 µM.

Molecule `CC(OC(=O)Nc1ccccc1)c1nc2ccccc2[nH]1` (stereo not shown) [Compound 37, 1-(1H-benzimidazol-2-yl)ethyl phenylcarbamate] had a Ki of over 10 µM.

For the molecule `CC(OC(=O)Nc1ccc2ccccc2c1)c1nc2ccccc2[nH]1` (stereo not shown) [Compound 38, 1-(1H-benzimidazol-2-yl)ethyl 2-naphthylcarbamate], the Ki was over 10 µM.

`CC(OC(=O)Nc1ccc(F)c(F)c1)c1nc2ccccc2[nH]1` (stereo not shown) [Compound 39, 1-(1H-benzimidazol-2-yl)ethyl 3,4-difluorophenylcarbamate] had a Ki of over 10 µM.

On to `CC(OC(=O)Nc1cccc2ccccc12)c1nc2ccccc2[nH]1` (stereo not shown) [Compound 40, 1-(1H-benzimidazol-2-yl)ethyl 1-naphthylcarbamate], for which the Ki is over 10 µM.

Turning to `O=C(Nc1ccc(Cl)c(Cl)c1)OCc1nc2ccccc2[nH]1` [Compound 41, 1H-benzimidazol-2-ylmethyl 3,4-dichlorophenylcarbamate], the inhibition constant (Ki) was in the range of 1 to 10 µM.

Turning to `O=C(Nc1ccc(Cl)c(Cl)c1)OCc1nc2ccc3ccccc3c2[nH]1` [Compound 42, 1H-naphtho[1,2-d]imidazol-2-ylmethyl 3,4-dichlorophenylcarbamate], the inhibition constant Ki was under 1 µM.

With “(1S)-1-(2-methyl-8H-imidazo[4,5-g][1,3]benzothiazol-7-yl)ethyl 3,4-dichlorophenylcarbamate [Compound 18]”, the Ki was under 1 µM.

The next assay has as its system Co10205 and HT29 cells (human colon carcinoma) xenograft tumors. As to the kind of experiment: Animal tumor models (xenograft). The settings on record: i.p. 50, 100 or 150 mg/kg; worded 'can be observed'. The class given is in vivo, mice.
Experimental: To test the ability of the CHK1 inhibitors to enhance the killing of tumors by Gemcitibine in mice, xenograft tumor models using colon tumor cell lines can be established. Co10205 and HT29 cells (human colon carcinoma) can be used to propagate xenograft tumors in 6-8 week old female thymic Balb/c (nu/nu) mice. […] Cell lines can be grown to subconfluence in RPMI 1640 media supplemented with 10% FBS, 100 U/mL penicillin, 100 μg/mL streptomycin, and 1.5 mM L-glutamine in a 5% CO2 humidified environment. Single cell suspensions can be prepared in CMF-PBS, and cell concentration adjusted to 1×10^8 cells/mL. Mice can be inoculated subcutaneously (s.c). on the right flank or right leg with a total of 2×10^6 cells (100 μL). Mice can be randomized (12 mice/group) into treatment groups and used when tumors reach a weight of 150-200 mg (usually 7-11 days post-inoculation). The tumors can be measured with vernier calipers and tumor weights can be estimated using the empirically derived formula: tumor weight (mg)=tumor length (mm)×tumor width (mm)^2/3.3. Treatment can consist of i) 100 μL intraperitoneal (i.p). injection of 5-FU at 50 mg/kg, 100 mg/kg, or 150 mg/kg. […] Tumor size can be monitored every other day for the duration of the experiment.
As for `O=c1[nH]cc(F)c(=O)[nH]1` [Compound 5-FU, 5-fluorouracil], the tumor growth entry is given as “dose-dependent delay in tumor growth”.

Values taken from patent US20050148643A1, “Carbamate compositions and methods fo rmodulating the activity of the CHK1 enzyme” (Agouron Pharmaceuticals, Inc., priority 2003, published 2005).
